Where two headings read alike, the source gives them in different places.
Assays:
Type in all cases: cell-based
[1] = system: clinical isolate of K. pneumoniae S 48 producing metallo beta-lactamases [SHV, TEM, NDM-1]; assay: Time kill study; details: for Bacterial count: each agent at 8 mcg/ml, initial count 6.84 log CFU/ml
Experimental: (§1) Typically, freshly grown cultures were diluted to the required cell density (initial starting inoculum) in Cation adjusted Muller Hinton broth medium BD, USA). The antibacterial agents at the required concentrations were added into the culture-containing medium either alone or in combination. The samples were incubated under shaking condition (120 rpm) at 37° C. Enumeration of viable bacterial count was undertaken, every 2 hour, by diluting in normal saline and plating on to the Tryptic Soya Agar plates (BD, USA). The plates were incubated for 24 hours to arrive at the viable bacterial count. […] The decrease of 1 Log CFU/ml, after administration of combination of present invention, in comparison to initial bacterial count corresponds to 90% killing of bacteria. Similarly, 2 Log CFU/ml reductions corresponds to 99% killing of bacteria and 3 Log CFU/ml reductions is equal to 99.9% killing of bacteria.

[2] = system: highly resistant strains of E. coli, K. pneumonia and P. aeruginosa; assay: MIC, summary over the strain panel; details: for MICs (range over the strains): agent alone
Experimental: (§2) The antibacterial activity of combinations according to the invention was investigated against various bacterial strains. In a typical study, minimum inhibitory concentrations (MIC) were determined using Muller Hinton Agar (MHA) (BD, USA) according to Clinical and Laboratory Standards Institute (CLSI) recommendations, (Clinical and Laboratory Standards Institute (CLSI), Performance Standards for Antimicrobial Susceptibility Testing, 20th Informational Supplement, M 100-S20, Volume 30, No. 1, 2010). In short, the inocula were adjusted to deliver about 10^4 colony forming units (CFU) per spot with a multipoint inoculator (Applied Quality Services, UK). The plates were pored with doubling concentration range of the test combinations according to invention containing MHA. The plates were inoculated and were incubated at 35° C. for 18 hours.

[3] = system: P. aeruginosa S 513; assay: MIC on Muller Hinton Agar (CLSI)
Experimental: as §2

[4] = system: K. pneumoniae S 50; assay: MIC on Muller Hinton Agar (CLSI); details: for MIC: enzymes SHV, TEM
Experimental: as §2

[5] = system: E. coli S 16; assay: MIC on Muller Hinton Agar (CLSI); details: for MIC: enzymes CMY type, TEM, DHA
Experimental: as §2

[6] = system: K. pneumoniae B 88; assay: MIC on Muller Hinton Agar (CLSI); details: for MIC: enzymes SHV, TEM
Experimental: as §2

[7] = system: K. pneumoniae B 77; assay: MIC on Muller Hinton Agar (CLSI); details: for MIC: enzymes SHV, TEM
Experimental: as §2

[8] = system: E. coli S 30; assay: MIC on Muller Hinton Agar (CLSI); details: for MIC: enzymes CMY type, TEM
Experimental: as §2

[9] = system: P. aeruginosa S 508; assay: MIC on Muller Hinton Agar (CLSI)
Experimental: as §2

[10] = system: P. aeruginosa H 113720186; assay: MIC on Muller Hinton Agar (CLSI); details: for MIC: enzymes IMP
Experimental: as §2

[11] = system: E. coli S 35; assay: MIC on Muller Hinton Agar (CLSI); details: for MIC: enzymes TEM
Experimental: as §2

[12] = system: E. coli S 33; assay: MIC on Muller Hinton Agar (CLSI); details: for MIC: enzymes TEM
Experimental: as §2

[13] = system: K. pneumoniae S 48; assay: MIC on Muller Hinton Agar (CLSI); details: for MIC: enzymes SHV, TEM
Experimental: as §2

[14] = system: E. coli M 44; assay: MIC on Muller Hinton Agar (CLSI); details: for MIC: enzymes TEM
Experimental: as §2

[15] = system: P. aeruginosa Q-111; assay: MIC on Muller Hinton Agar (CLSI)
Experimental: as §2

[16] = system: P. aeruginosa S 504; assay: MIC on Muller Hinton Agar (CLSI)
Experimental: as §2

[17] = system: K. pneumoniae M 3; assay: MIC on Muller Hinton Agar (CLSI); details: for MIC: enzymes SHV, CTXM, TEM
Experimental: as §2

[18] = system: E. coli S 330; assay: MIC on Muller Hinton Agar (CLSI); details: for MIC: Escherichia coli, S330, agent alone, enzymes NDM, read-out: MIC
Experimental: as §2

[19] = system: K. pneumoniae NCTC 13439; assay: MIC on Muller Hinton Agar (CLSI); details: for MIC: Klebsiella pneumoniae, NCTC13439, agent alone, enzymes VIM-1, read-out: MIC
Experimental: as §2

[20] = system: clinical isolate of K. pneumoniae B 88 producing metallo beta-lactamases [SHV, TEM, NDM-1]; assay: Time kill study; details: for Bacterial count: each agent at 8 mcg/ml, initial count 6.18 log CFU/ml; for Change in bacterial count (in words): used alone at 8 mcg/ml, at the end of 6 hours
Experimental: as §1

[21] = Pseudomonas aeruginosa, S513, agent alone, enzymes VIM-6, read-out: MIC
[22] = Klebsiella pneumoniae, S50, agent alone, NDM-1, read-out: MIC
[23] = Escherichia coli, S16, agent alone, read-out: MIC
[24] = Klebsiella pneumoniae, B88, agent alone, NDM-1, read-out: MIC
[25] = Klebsiella pneumoniae, B77, agent alone, NDM-1, read-out: MIC
[26] = Escherichia coli, S30, agent alone, NDM-1, read-out: MIC
[27] = Pseudomonas aeruginosa, S508, agent alone, enzymes VIM-11, read-out: MIC
[28] = Pseudomonas aeruginosa, H113720186, agent alone, read-out: MIC
[29] = Escherichia coli, S35, agent alone, NDM-1, read-out: MIC
[30] = Escherichia coli, S33, agent alone, NDM-1, read-out: MIC
[31] = Klebsiella pneumoniae, S48, agent alone, NDM-1, read-out: MIC
[32] = Escherichia coli, M44, agent alone, NDM-1, read-out: MIC
[33] = Pseudomonas aeruginosa, Q111, agent alone, enzymes OXA-4, OXA-11, read-out: MIC
[34] = Pseudomonas aeruginosa, S504, agent alone, enzymes VIM-6, read-out: MIC
[35] = Klebsiella pneumoniae, M3, agent alone, NDM-1, read-out: MIC

| Molecule | Bacterial count ([1]; 2 hours) [Log CFU/ml] | Bacterial count ([1]; 4 hours) [Log CFU/ml] | Bacterial count ([1]; 6 hours) [Log CFU/ml] | MIC [3, 21] [µg/mL] | MIC [4, 22] [µg/mL] | MIC [5, 23] [µg/mL] | MIC [18] [µg/mL] | MIC [6, 24] [µg/mL] | MIC [7, 25] [µg/mL] | MIC [8, 26] [µg/mL] | MIC [9, 27] [µg/mL] | MIC [10, 28] [µg/mL] | MIC [11, 29] [µg/mL] | MIC [12, 30] [µg/mL] | MIC [13, 31] [µg/mL] | MIC [14, 32] [µg/mL] | MIC [15, 33] [µg/mL] | MIC [16, 34] [µg/mL] | MIC [19] [µg/mL] | MIC [17, 35] [µg/mL] | other results |
| --- | --- | --- | --- | --- | --- | --- | --- | --- | --- | --- | --- | --- | --- | --- | --- | --- | --- | --- | --- | --- | --- |
| C[C@@H](O)[C@H]1C(=O)N2C(C(=O)O)=C(SCCN=CN)C[C@H]12 [Imipenem, imipenem] | 7.38 | 8.32 | 8.81 | – | – | – | – | – | – | – | – | – | – | – | – | – | – | – | – | – | – |
| colistin | – | – | – | – | – | – | – | – | – | – | – | – | – | – | – | – | – | – | – | – | MICs (range over the strains) ([2]; resistant strains of E. coli, K. pneumonia and P. aeruginosa): 0.5 to 2 µg/mL; MIC ([3]; agent alone, enzymes VIM-6): 2 µg/mL; MIC ([4]; agent alone, NDM-1): 1 µg/mL; MIC ([5]; agent alone): 1 µg/mL; MIC ([6]; agent alone, NDM-1): 1 µg/mL; MIC ([7]; agent alone, NDM-1): 1 µg/mL; MIC ([8]; agent alone, NDM-1): 0.5 µg/mL; MIC ([9]; agent alone, enzymes VIM-11): 2 µg/mL; MIC ([10]; agent alone): 2 µg/mL; MIC ([11]; agent alone, NDM-1): 1 µg/mL; MIC ([12]; agent alone, NDM-1): 1 µg/mL; MIC ([13]; agent alone, NDM-1): 1 µg/mL; MIC ([14]; agent alone, NDM-1): 1 µg/mL; MIC ([15]; agent alone, enzymes OXA-4, OXA-11): 2 µg/mL; MIC ([16]; agent alone, enzymes VIM-6): 2 µg/mL; MIC ([17]; agent alone, NDM-1): 1 µg/mL |
| C[C@@H](O)[C@H]1C(=O)N2C(C(=O)O)=C(S[C@@H]3CN[C@H](C(=O)N(C)C)C3)[C@H](C)[C@H]12 [Meropenem, meropenem] | – | – | – | > 32 | > 32 | > 32 | > 32 | > 32 | > 32 | > 32 | > 32 | > 64 | > 32 | > 32 | 32 | 32 | 4 | > 32 | > 32 | 16 | Bacterial count ([20]; 2 hours): 6.02 Log CFU/ml; Bacterial count ([20]; 4 hours): 6.3 Log CFU/ml; Bacterial count ([20]; 6 hours): 7.6 Log CFU/ml; Change in bacterial count (in words) [20]: no decrease in bacterial count was observed |
| CC(C)(O/N=C(\C(=O)N[C@@H]1C(=O)N2C(C(=O)[O-])=C(C[n+]3ccccc3)CS[C@H]12)c1csc(N)n1)C(=O)O [ceftazidine, ceftazidime] | – | – | – | – | – | – | – | – | – | – | – | – | – | – | – | – | – | – | – | – | MIC values of ceftazidime in presence of avibactam ([2]; with avibactam at 4 mcg/ml, in most of the cases): more than 16 mcg/ml; MIC (mcg/ml) of ceftazidine in presence of avibactam (4 mcg/ml) ([3]; with avibactam at 4 mcg/ml): >16 µg/mL; MIC (mcg/ml) of ceftazidine in presence of avibactam (4 mcg/ml) ([4]; with avibactam at 4 mcg/ml): >16 µg/mL; MIC (mcg/ml) of ceftazidine in presence of avibactam (4 mcg/ml) ([5]; with avibactam at 4 mcg/ml): >16 µg/mL; MIC (mcg/ml) of ceftazidine in presence of avibactam (4 mcg/ml) ([18]; with avibactam at 4 mcg/ml): >16 µg/mL; MIC (mcg/ml) of ceftazidine in presence of avibactam (4 mcg/ml) ([6]; with avibactam at 4 mcg/ml): >16 µg/mL; MIC (mcg/ml) of ceftazidine in presence of avibactam (4 mcg/ml) ([7]; with avibactam at 4 mcg/ml): >16 µg/mL; MIC (mcg/ml) of ceftazidine in presence of avibactam (4 mcg/ml) ([8]; with avibactam at 4 mcg/ml): >16 µg/mL; MIC (mcg/ml) of ceftazidine in presence of avibactam (4 mcg/ml) ([9]; with avibactam at 4 mcg/ml): >16 µg/mL; MIC (mcg/ml) of ceftazidine in presence of avibactam (4 mcg/ml) ([10]; with avibactam at 4 mcg/ml): >32 µg/mL; MIC (mcg/ml) of ceftazidine in presence of avibactam (4 mcg/ml) ([11]; with avibactam at 4 mcg/ml): >16 µg/mL; MIC (mcg/ml) of ceftazidine in presence of avibactam (4 mcg/ml) ([12]; with avibactam at 4 mcg/ml): >16 µg/mL; MIC (mcg/ml) of ceftazidine in presence of avibactam (4 mcg/ml) ([13]; with avibactam at 4 mcg/ml): >16 µg/mL; MIC (mcg/ml) of ceftazidine in presence of avibactam (4 mcg/ml) ([14]; with avibactam at 4 mcg/ml): >16 µg/mL; MIC (mcg/ml) of ceftazidine in presence of avibactam (4 mcg/ml) ([15]; with avibactam at 4 mcg/ml): 32 µg/mL; MIC (mcg/ml) of ceftazidine in presence of avibactam (4 mcg/ml) ([16]; with avibactam at 4 mcg/ml): >16 µg/mL; MIC (mcg/ml) of ceftazidine in presence of avibactam (4 mcg/ml) ([19]; with avibactam at 4 mcg/ml): >16 µg/mL; MIC (mcg/ml) of ceftazidine in presence of avibactam (4 mcg/ml) ([17]; with avibactam at 4 mcg/ml): >16 µg/mL |
| NCC[C@H](O)C(=O)N[C@@H]1C[C@H](N)[C@@H](O[C@H]2O[C@H](CN)[C@@H](O)[C@H](O)[C@H]2O)[C@H](O)[C@H]1O[C@H]1O[C@H](CO)[C@@H](O)[C@H](N)[C@H]1O [Amikacin, amikacin] | – | – | – | > 32 | > 64 | > 64 | > 64 | > 64 | > 64 | > 64 | > 32 | > 32 | > 64 | > 64 | > 64 | > 64 | 16 | > 32 | > 64 | 4 | – |
| O=C(NNC(=O)[C@@H]1CC[C@@H]2CN1C(=O)N2OS(=O)(=O)O)[C@@H]1CCCNC1 [Compound of Formula (I), (2S,5R)-sulphuric acid mono-[2-(N′—[(R)-piperidin-3-carbonyl]-hydrazinocarbonyl)-7-oxo-1,6-diaza-bicyclo[3.2.1]oct-6-yl] ester] | 7.27 | 7.04 | 7.45 | 8 | 0.5 | 0.25 | 0.12 | > 32 | > 32 | 0.25 | 8 | 8 | 0.25 | 0.25 | 0.5 | 0.12 | 4 | 8 | > 32 | 0.5 | MICs (range over the strains) ([2]; most strains of E. coli and K. pneumoniae): 0.1 to 0.5 µg/mL; Bacterial count ([20]; 2 hours): 6.4 Log CFU/ml; Bacterial count ([20]; 4 hours): 6.08 Log CFU/ml; Bacterial count ([20]; 6 hours): 6.28 Log CFU/ml; Change in bacterial count (in words) [20]: no decrease in bacterial count was observed; Change in bacterial count (in words) ([1]; used alone at 8 mcg/ml, at the end of 6 hours): no decrease in bacterial count was observed |
